Test results as given in patent US20190022073A1, “PHARMACEUTICAL COMPOSITION COMPRISING RAPAMYCIN OR DERIVATIVE THEREOF” (NIPPON KAYAKU KABUSHIKI KAISHA, priority 2015, published 2019).

Assay: pH of the stabilizer (additive) in water/ethanol mixture, measured by pH meter MM-60R (TOA DKK)
Conditions: 5 mg/mL in water/EtOH=1:1 mixture
Procedure: The pH of the (B) component can be measured by preparing 50% (v/v) ethanol aqueous solution containing 5 mg/mL of the (B) component, and measuring pH using commercially available pH meter. For example, pH can be measured by using MM-60R (TOA DKK).

Row | SMILES | pH of the additive used as stabilizer
1 | O=C([O-])CC(O)(CC(=O)[O-])C(=O)O.[Na+].[Na+] [disodium hydrogen citrate] | 6.3
2 | O=C1O[C@H]([C@@H](O)CO)C([O-])=C1O.[Na+] [sodium ascorbate] | 8.4
